Source: US3962039A, “Analytical procedure for thyroid hormones” (Center for Laboratory Medicine, priority 1975, dated 1976)
Structures can show the parent of a compound that is named as a salt.

System: serum protein
Details: pH 1.0, 30 minutes
Method: Contents of the tubes are set out in TABLE II below:
The four tubes were incubated at room temperature for 30 minutes. At the end of the incubation, 4.0 ml of sodium barbital buffer (0.075 M, pH 8.6) was added and mixed with the contents of each tube. The radioactivity of each tube was measured with a gammacounter.
Each of the tubes was then transferred to an Amicon ultrafiltration cone with a centrifuge tube attachment. The tubes were centrifuged for 45 minutes at 2,200 × g at room temperature. The entire ultrafiltrate was collected and the radioactivity counted.
a = radioactivity before ultrafiltration,
b = the radioactivity in the ultrafiltrate

Cl [HCl, Hydrochloric acid]
destruction of thyroxine binding sites of the serum proteins: only partially destroy

pepsin
destruction of thyroxine binding sites of the serum proteins: completely destroyed
